# Experimental data taken from patent US10646488B2 (Araxes Pharma LLC, priority 2016, dated 2020).
# Molecular target: T1, KRAS G12C 1-169, his-tagged protein, GDP-loaded (Homo sapiens, UniProt P01116, G12C)
# T1 construct: KRAS G12C 1-169, his-tagged protein, GDP-loaded
# Experiment: Covalent binding (% modification) to KRAS G12C by mass spectrometry; also: test concentration or dose not given here
# Conditions: covalent binding to KRAS G12C after a three minute incubation period
row,Structure (SMILES),Binding %
1,"C=CC(=O)N1CCN(c2nc(N3CC(N(C)C)C3)nc3c(F)c(-c4c(O)cccc4F)c(Cl)cc23)C[C@@H]1C [Compound 88, 1-((2S)-4-(6-chloro-2-(3-(dimethylamino)azetidin-1-yl)-8-fluoro-7-(2-fluoro-6-hydroxyphenyl)quinazolin-4-yl)-2-methyl-piperazin-1-yl) prop-2-en-1-one]",+ (+ indicates binding activity greater than 0% and up to 50%)
2,"C=CC(=O)N1CCN(c2nc(CN(C)Cc3ncccn3)nc3c(F)c(-c4c(O)cccc4F)c(Cl)cc23)C[C@H]1C [Compound 91, 1-((2R)-4-(6-chloro-8-fluoro-7-(2-fluoro-6-hydroxyphenyl)-2-((methyl (pyrimidin-2-yl-methyl)amino)methyl)quinazolin-4-yl)-2-methyl-piperazin-1-yl) prop-2-en-1-one]",+ (+ indicates binding activity greater than 0% and up to 50%)
3,C=CC(=O)N1C[C@H](C)N(c2nc(N3CC(N)C3)nc3c(F)c(-c4c(O)cccc4F)c(Cl)cc23)C[C@H]1C [Compound 92],++ (++ indicates binding activity from 50 to 90%)
4,"C#CCN(C)C1CN(c2nc(N3C[C@@H](C)N(C(=O)C=C)C[C@@H]3C)c3cc(Cl)c(-c4c(O)cccc4F)c(F)c3n2)C1 [Compound 93, 1-((2R,5S)-4-(6-chloro-8-fluoro-7-(2-fluoro-6-hydroxyphenyl)-2-(3-(methyl (prop-2-yn-1-yl)amino)azetidin-1-yl)quinazolin-4-yl)-2,5-dimethyl-piperazin-1-yl) prop-2-en-1-one]",++ (++ indicates binding activity from 50 to 90%)
5,"C=CC(=O)N1C[C@H](C)N(c2nc(N3CC(N(C)C)C3)nc3c(F)c(-c4c(O)cccc4F)c(Cl)cc23)C[C@@H]1C [Compound 94, 1-((2S,5S)-4-(6-chloro-2-(3-(dimethylamino)azetidin-1-yl)-8-fluoro-7-(2-fluoro-6-hydroxyphenyl)quinazolin-4-yl)-2,5-dimethyl-piperazin-1-yl) prop-2-en-1-one]",+ (+ indicates binding activity greater than 0% and up to 50%)
6,"C=CC(=O)N1CCN(c2nc(CNCc3ncccn3)nc3c(F)c(-c4c(O)cccc4F)c(Cl)cc23)C[C@H]1C [Compound 95, 1-((2R)-4-(6-chloro-8-fluoro-7-(2-fluoro-6-hydroxyphenyl)-2-(((pyrimidin-2-ylmethyl)amino)methyl)quinazolin-4-yl)-2-methyl-piperazin-1-yl) prop-2-en-1-one]",++ (++ indicates binding activity from 50 to 90%)
7,"C=CC(=O)N1C[C@H](C)N(c2nc(N3CC(NC)C3)nc3c(F)c(-c4c(O)cccc4F)c(Cl)cc23)C[C@H]1C [Compound 96, 1-((2R,5S)-4-(6-chloro-8-fluoro-7-(2-fluoro-6-hydroxyphenyl)-2-(3-(methylamino)azetidin-1-yl)quinazolin-4-yl)-2,5-dimethyl-piperazin-1-yl) prop-2-en-1-one]",+++ (+++ indicates binding activity greater than 90%)
8,"C=CC(=O)N1C[C@H](C)N(c2nc(N3CC(N)C3)nc3c(F)c(-c4c(C)ccc5cn[nH]c45)c(Cl)cc23)C[C@H]1C [Compound 97, 1-((2R,5S)-4-(2-(3-aminoazetidin-1-yl)-6-chloro-8-fluoro-7-(6-methyl-1H-indazol-7-yl)quinazolin-4-yl)-2,5-dimethyl-piperazin-1-yl) prop-2-en-1-one]",++ (++ indicates binding activity from 50 to 90%)
9,"C=CC(=O)N1C[C@H](C)N(c2nc(N3CC(N(C)CC)C3)nc3c(F)c(-c4c(O)cccc4F)c(Cl)cc23)C[C@H]1C [Compound 98, 1-((2R,5S)-4-(6-chloro-2-(3-(ethyl(methyl)amino)azetidin-1-yl)-8-fluoro-7-(2-fluoro-6-hydroxyphenyl)quinazolin-4-yl)-2,5-dimethyl-piperazin-1-yl) prop-2-en-1-one]",++ (++ indicates binding activity from 50 to 90%)
10,"C=CC(=O)N1C[C@H](C)N(c2nc(N3CC(N(C)C(C)C)C3)nc3c(F)c(-c4c(O)cccc4F)c(Cl)cc23)C[C@H]1C [Compound 99, 1-((2R,5S)-4-(6-chloro-8-fluoro-7-(2-fluoro-6-hydroxyphenyl)-2-(3-(isopropyl (methyl)amino)azetidin-1-yl)quinazolin-4-yl)-2,5-dimethyl-piperazin-1-yl) prop-2-en-1-one]",++ (++ indicates binding activity from 50 to 90%)
11,"C=CC(=O)N1C[C@H](C)N(c2nc(N3CC(NC)C3)nc3c(F)c(-c4c(C)ccc5cn[nH]c45)c(Cl)cc23)C[C@H]1C [Compound 100, 1-((2R,5S)-4-(6-chloro-8-fluoro-7-(6-methyl-1H-indazol-7-yl)-2-(3-(methylamino)azetidin-1-yl)quinazolin-4-yl)-2,5-dimethyl-piperazin-1-yl) prop-2-en-1-one]",++ (++ indicates binding activity from 50 to 90%)
12,"CC(C)/C=C(\C#N)C(=O)N1C[C@H](C)N(c2nc(N3CC(N(C)C)C3)nc3c(F)c(-c4c(O)cccc4F)c(Cl)cc23)C[C@H]1C [Compound 101, (E)-2-((2R,5S)-4-(6-chloro-2-(3-(dimethylamino)azetidin-1-yl)-8-fluoro-7-(2-fluoro-6-hydroxyphenyl)quinazolin-4-yl)-2,5-dimethyl-piperazine-1-carbonyl)-4-methylpent-2-enenitrile]",+ (+ indicates binding activity greater than 0% and up to 50%)
13,"C=CC(=O)N1C[C@H](C)N(c2nc(N3CC(N(C)CC)C3)nc3c(F)c(-c4c(O)cccc4F)c(Cl)cc23)C[C@H]1C [Compound 102, 1-((2R,5S)-4-(6-chloro-2-(3-(ethyl(methyl)amino)azetidin-1-yl)-8-fluoro-7-(2-fluoro-6-hydroxyphenyl)quinazolin-4-yl)-2,5-dimethyl-piperazin-1-yl) prop-2-en-1-one]",++ (++ indicates binding activity from 50 to 90%)
14,"C=CC(=O)N1C[C@H](C)N(c2nc(N3CC(N4CCC(F)(F)C4)C3)nc3c(F)c(-c4c(O)cccc4F)c(Cl)cc23)C[C@H]1C [Compound 103, 1-((2R,5S)-4-(6-chloro-2-(3-(3,3-difluoro-pyrrolidin-1-yl)azetidin-1-yl)-8-fluoro-7-(2-fluoro-6-hydroxyphenyl)quinazolin-4-yl)-2,5-dimethyl-piperazin-1-yl) prop-2-en-1-one]",+ (+ indicates binding activity greater than 0% and up to 50%)
15,"C=CC(=O)N1C[C@H](C)N(c2nc(N3CC(C)(N(C)C)C3)nc3c(F)c(-c4c(O)cccc4F)c(Cl)cc23)C[C@H]1C [Compound 104, 1-((2R,5S)-4-(6-chloro-2-(3-(dimethylamino)-3-methylazetidin-1-yl)-8-fluoro-7-(2-fluoro-6-hydroxyphenyl)quinazolin-4-yl)-2,5-dimethyl-piperazin-1-yl) prop-2-en-1-one]",+++ (+++ indicates binding activity greater than 90%)
16,"C=CC(=O)N1C[C@H](C)N(c2nc(N3CC(N(CC)C4CC4)C3)nc3c(F)c(-c4c(O)cccc4F)c(Cl)cc23)C[C@H]1C [Compound 105, 1-((2R,5S)-4-(6-chloro-2-(3-(cyclopropyl (ethyl)amino)azetidin-1-yl)-8-fluoro-7-(2-fluoro-6-hydroxyphenyl)quinazolin-4-yl)-2,5-dimethyl-piperazin-1-yl) prop-2-en-1-one]",++ (++ indicates binding activity from 50 to 90%)
17,"C=CC(=O)N1C[C@H](C)N(c2nc(N3CC(N(C)C4CC4)C3)nc3c(F)c(-c4c(O)cccc4F)c(Cl)cc23)C[C@H]1C [Compound 106, 1-((2R,5S)-4-(6-chloro-2-(3-(cyclopropyl (methyl)amino)azetidin-1-yl)-8-fluoro-7-(2-fluoro-6-hydroxyphenyl)quinazolin-4-yl)-2,5-dimethyl-piperazin-1-yl) prop-2-en-1-one]",++ (++ indicates binding activity from 50 to 90%)
18,"C=CC(=O)N1C[C@H](C)N(c2nc(N3CC(N(C)CC(F)F)C3)nc3c(F)c(-c4c(O)cccc4F)c(Cl)cc23)C[C@H]1C [Compound 107, 1-((2R,5S)-4-(6-chloro-2-(3-((2,2-difluoroethyl) (methyl)amino)azetidin-1-yl)-8-fluoro-7-(2-fluoro-6-hydroxyphenyl)quinazolin-4-yl)-2,5-dimethyl-piperazin-1-yl) prop-2-en-1-one]",++ (++ indicates binding activity from 50 to 90%)
19,"C=CC(=O)N1C[C@H](C)N(c2nc(N3CC(N(C)C4CCC4)C3)nc3c(F)c(-c4c(O)cccc4F)c(Cl)cc23)C[C@H]1C [Compound 110, 1-((2R,5S)-4-(6-chloro-2-(3-(cyclobutyl (methyl)amino)azetidin-1-yl)-8-fluoro-7-(2-fluoro-6-hydroxyphenyl)quinazolin-4-yl)-2,5-dimethyl-piperazin-1-yl) prop-2-en-1-one]",++ (++ indicates binding activity from 50 to 90%)
20,"C[C@@H]1CN(c2nc(N3CC(N(C)C)C3)nc3c(F)c(-c4c(O)cccc4F)c(Cl)cc23)[C@@H](C)CN1C(=O)/C(C#N)=C/c1ccccn1 [Compound 111, (E)-2-((2R,5S)-4-(6-chloro-2-(3-(dimethylamino)azetidin-1-yl)-8-fluoro-7-(2-fluoro-6-hydroxyphenyl)quinazolin-4-yl)-2,5-dimethyl-piperazine-1-carbonyl)-3-(pyridin-2-yl) acrylonitrile]",+ (+ indicates binding activity greater than 0% and up to 50%)
21,"C=CC(=O)N1C[C@H](C)N(c2nc(OCCN3CC(F)(F)C3)nc3c(F)c(-c4c(C)ccc5cn[nH]c45)c(Cl)cc23)C[C@H]1C [Compound 112, 1-((2R,5S)-4-(6-chloro-2-(2-(3,3-difluoroazetidin-1-yl)ethoxy)-8-fluoro-7-(6-methyl-1H-indazol-7-yl)quinazolin-4-yl)-2,5-dimethyl-piperazin-1-yl) prop-2-en-1-one]",++ (++ indicates binding activity from 50 to 90%)
22,"C[C@@H]1CN(c2nc(N3CC(N(C)C)C3)nc3c(F)c(-c4c(O)cccc4F)c(Cl)cc23)[C@@H](C)CN1C(=O)C#CCO [Compound 113, 1-((2R,5S)-4-(6-chloro-2-(3-(dimethylamino)azetidin-1-yl)-8-fluoro-7-(2-fluoro-6-hydroxyphenyl)quinazolin-4-yl)-2,5-dimethyl-piperazin-1-yl)-4-hydroxybut-2-yn-1-one]",+++ (+++ indicates binding activity greater than 90%)
